pEC50, pIC50: −log10 of the molar value. Read-outs that look alike come from different tables or passages of the source.
Assays:
U87MG = assay: CellTiter-Glo cell proliferation assay, U87MG; type: cell-based, human; conditions: for pIC50: Homo sapiens, U-87 MG
Summary of the method: (§1)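 Cells were seeded at 1,500 to 5,000 per well overnight, then exposed for 72 hours to 10 concentrations of compound from 2- or 3-fold serial dilutions. Viability was read as CellTiter-Glo luminescence, and % growth was normalized to DMSO-treated cells and medium-only background. IC50 came from concentration-response fitting.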

T98G = assay: CellTiter-Glo cell proliferation assay, T98G; type: cell-based; conditions: Homo sapiens, T98G; for IC50: Table 11, read-out: Absolute IC50 (μM) T98G
Summary of the method: as §1

LN-229 = assay: CellTiter-Glo cell proliferation assay, LN-229; type: cell-based; conditions: Homo sapiens, LN-229; for IC50: Table 11, read-out: Absolute IC50 (μM) LN-229
Summary of the method: as §1

U251 = assay: CellTiter-Glo cell proliferation assay, U251; type: cell-based; conditions: Homo sapiens, U-251; for IC50: Table 11, read-out: Absolute IC50 (μM) U251
Summary of the method: as §1

HCN2 = assay: CellTiter-Glo cell proliferation assay, HCN2 (normal brain); type: cell-based
Experimental: CellTiter-Glo® Luminescent Cell Viability assay (with Promega CellTiter 96® Luminescent CellTiter-Glo® kit) was used to study the proliferation inhibition by test compounds. Compounds were resuspended in DMSO to make a 25 mM stock suspension. Cells of cancer cell lines or normal tissues were seeded in 96-well plates at 1,500 to 5,000 cells/well overnight. Compounds were 2- or 3-fold diluted serially to obtain 10 concentrations. Then, the drugs were added to the cell wells by Bravo (Agilent) and incubated for 72 hours. The cells were lysed by adding CellTiter-Glo® Reagent (per manufacturer's instructions) and subsequently, the luminescence was read using EnVision® (PerkinElmer).
The percent of growth was calculated as follows. DMSO-treated cells were employed as vehicle control (High control, HC) and culture medium alone was employed as background (Low control, EC). % growth=100×(Lum sample−Lum EC)/(Lum HC−Lum EC). The ICso was calculated by concentration-response curve fitting using Graphpad Prism.
Hematological cancer cell lines tested included OCI-AML3, MV-4-11, KG-1, Kasumi-1, K562, THP-1; solid cancer cell lines tested included U87MG, U251, T98G, LN229, A172, H460, H2009, A549; normal cell lines tested included HCN2 and 3T3-L1. […] However, they were not toxic to in vitro cultured normal cells.

[1] = Pharmacokinetic profile summary; type: in vivo, mice or rats; conditions: for bioavailability / Kp at 1 h: oral; for bioavailability / half-life: mice or rats; for AUC / Cmax: po; for Kp at 1 h: brain/plasma, read-out: B/P ratio (Cmax time) 10 mpk
Experimental: Blood was collected from mice (n=3, or 5) to contribute to the total of 10 time points (pre-dose, 5 min, 15 min, 30 min, 1 hour, 2 hours, 4 hours, 8 hours, 12 hours and 24 hours). At the designated time points, animals were anaesthetized under isoflurane, and approximately 110 μL of blood per time point was collected via retro-orbital puncture into pre-cooled K2EDTA tubes. Blood samples were put on wet ice and centrifuged (2000 g, 5 min at 4° C.) to obtain plasma within 30 minutes of sample collection. All samples were stored frozen at approximately −80° C. until analysis. Prior to analysis, samples were mixed with internal standard in acetonitrile, vortexed, centrifuged, and supernatant was injected for analysis. Concentration of compounds in plasma was determined using LC-MS-MS instrumentation (API 4000, Triple Quadrupole LC/MS/MS Mass Spectrometer). AUC values were calculated using Phoenix Win Nonlin 6.3 software package, PO-Noncompartmental model 200 (extravascular input).
Following collection, brain tissue was rinsed with cold saline, dried on filter paper, weighed and snap-frozen by placing on dry ice. All samples were stored frozen at approximately −80° C. until analysis. At the time of analysis, brain tissue was homogenized (homogenizing solution PBS, pH 7.4), mixed with internal standard in acetonitrile, vortexed, centrifuged, and supernatant was injected for analysis. Concentration of compounds in plasma was determined using LC-MS-MS instrumentation (API 4000, Triple Quadrupole LC/MS/MS Mass Spectrometer). Plasma samples were treated with the identical method (except homogenization step) and the concentration of compound in each matrix was calculated based on generated standard curves.
The pharmacokinetic profile of test compounds in mice or rats was determined from several test compounds was determined using the methods described in Example 22.

XPO1 = XPO1 (Homo sapiens, UniProt O14980); assay: REV-GFP translocation assay in U2OS cells; type: cell-based; parameters: endogenous in cells; host or cells: U2OS cells stably expressing REV-GFP (clones from HD Biosciences); conditions: for pIC50: Table 10; for EC50: Table 13, read-out: Rev-GFP assay/μM
Summary of the method: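 High-content imaging (Hoechst and GFP channels, 20× objective) quantified REV-GFP nuclear translocation in U2OS cells after 1 h compound exposure at 37° C, maximum 10 μM. Cells were formaldehyde-fixed before staining. Results expressed as % effect scaled between vehicle control and 50 nM LMB.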

[2] = 72 h, U87MG, 72 hours, Table 1, read-out: Growth inhibition (IC50)
[3] = Table 9, first value column, read-out: U87MG IC50
[4] = Table 9, second value column, read-out: U87MG IC50
[5] = 72 h, HCN2 normal cell line, 72 hours, Table 1, read-out: Growth inhibition (IC50)
[6] = 10 mg/kg, plasma, 10 mpk, read-out: Cmax (ng/ml) plasma/10 mpk
[7] = REV-EGFP U2OS cells, 1 h, Table 2, read-out: Rev-GFP/EC50
[8] = first (or only) value of the cell
[9] = 72 hours, Table 1, read-out: Growth inhibition (IC50)

Chain of XPO1 (O14980 whole entry): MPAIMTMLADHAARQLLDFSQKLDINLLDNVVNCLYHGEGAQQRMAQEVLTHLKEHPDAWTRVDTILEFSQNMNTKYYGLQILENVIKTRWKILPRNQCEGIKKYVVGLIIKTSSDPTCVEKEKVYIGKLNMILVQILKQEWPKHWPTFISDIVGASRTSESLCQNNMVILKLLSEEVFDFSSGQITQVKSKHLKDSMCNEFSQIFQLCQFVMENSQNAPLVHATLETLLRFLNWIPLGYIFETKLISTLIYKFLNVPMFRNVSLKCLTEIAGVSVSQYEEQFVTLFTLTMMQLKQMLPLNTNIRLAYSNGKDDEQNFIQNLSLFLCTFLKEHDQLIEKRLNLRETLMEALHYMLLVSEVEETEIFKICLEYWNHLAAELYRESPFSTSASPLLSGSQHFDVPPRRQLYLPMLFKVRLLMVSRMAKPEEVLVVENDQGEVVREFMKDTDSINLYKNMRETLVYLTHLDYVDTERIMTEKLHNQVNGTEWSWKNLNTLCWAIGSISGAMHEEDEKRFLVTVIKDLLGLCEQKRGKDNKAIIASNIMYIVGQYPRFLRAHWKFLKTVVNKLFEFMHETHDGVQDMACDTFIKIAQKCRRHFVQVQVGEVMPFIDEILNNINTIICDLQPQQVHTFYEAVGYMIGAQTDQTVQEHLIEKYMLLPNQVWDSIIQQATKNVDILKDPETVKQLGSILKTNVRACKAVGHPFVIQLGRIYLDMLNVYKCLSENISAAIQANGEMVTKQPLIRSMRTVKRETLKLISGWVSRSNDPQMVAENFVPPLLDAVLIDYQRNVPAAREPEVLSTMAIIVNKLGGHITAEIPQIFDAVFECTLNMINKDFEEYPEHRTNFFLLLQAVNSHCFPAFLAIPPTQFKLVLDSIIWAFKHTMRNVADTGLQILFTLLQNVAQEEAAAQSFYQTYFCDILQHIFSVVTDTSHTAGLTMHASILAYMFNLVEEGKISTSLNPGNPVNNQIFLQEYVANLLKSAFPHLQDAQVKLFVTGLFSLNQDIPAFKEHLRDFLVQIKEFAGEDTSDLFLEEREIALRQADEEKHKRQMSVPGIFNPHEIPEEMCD

Compound | pIC50 (U87MG; [2]) | pIC50 (U87MG; [3]) | pIC50 (U87MG; [4]) | IC50 (T98G) [µM] | IC50 (LN-229) [µM] | IC50 (U251) [µM] | pIC50 (HCN2; [5]) | pIC50 (HCN2; Table 9, read-out: HCN2 IC50) | bioavailability ([1]; plasma) [%] | AUC ([1]; plasma, 10 mg/kg, 10 mpk) [ng·h/mL] | half-life ([1]; plasma) [h] | Cmax [1, 6] [ng/mL] | Kp at 1 h ([1]; rat, 10 mg/kg) | pEC50 (XPO1; [7]) | pIC50 (XPO1; [8]) | pIC50 (XPO1; second value of the cell) | EC50 (XPO1) [µM] | also measured
O=C(/C=C\n1cnc(-c2cc(C(F)(F)F)cc(S(F)(F)(F)(F)F)c2)n1)NNc1cnccn1 [Compound I, (Z)-3-(3-(3-(pentafluorosulfanyl)-5-(trifluoromethyl)phenyl)-1H-1,2,4-triazol-1-yl)-N′-(pyrazin-2-yl)acrylohydrazide] | 6.23 | 6.42 | 6.10 | 1.7 | 0.6 | 1.2 | 4.59 | 4.59 | 98 | 10000 | 4.7 | 2550 | 0.71 | 7.92 | 7.79 | 8.11 | 0.012 | pIC50 (U87MG; Table 6, read-out: U87MG IC50): 6.65; HCN2 Max % inh (HCN2; Table 8): 22%; pIC50 (HCN2; Table 8, read-out: HCN2 IC50): < 4.30; Cmax ([1]; rat, 10 mg/kg, 10 mpk, first number of Plasma/brain pair, read-out: Cmax/(ng/mL) Plasma): 1890 ng/mL; Cmax ([1]; rat, 10 mg/kg, 10 mpk, second number of Plasma/brain pair, read-out: Cmax/(ng/mL) brain): 1300 ng/mL
CC(C)(C)C(=O)NNC(=O)/C=C\n1cnc(-c2cc(C(F)(F)F)cc(S(F)(F)(F)(F)F)c2)n1 [Compound III, (Z)-3-(3-(3-(Pentafluorosulfanyl)-5-(trifluoromethyl)phenyl)-1H-1,2,4-triazol-1-yl)-N′-pivaloylacrylohydrazide] | 5.76 | 5.95 | 5.63 | 6.2 | 1.8 | 3.8 | < 4.30 | < 4.30 | 82 | 13900 | 5.2 | 1600 | 0.95 | 6.67 | 6.53 | 6.90 | 0.21 | pIC50 (U87MG; U87MG, Table 12, read-out: Relative IC50): 6.70; Max % Inhibition (U87MG; U87MG, Table 12): 46.3%; Bottom (U87MG; U87MG, curve fit, Table 12): −4.2; Hill Slope (U87MG; U87MG, curve fit, Table 12): 3.2; Top (U87MG; U87MG, curve fit, Table 12): 40.2; pIC50 (T98G; [9]): 5.20; pIC50 (LN-229; [9]): 5.75; pIC50 (U251; U251, 72 hours, Table 1, read-out: Growth inhibition (IC50)): 5.42; Cmax ([1]; 3 mg/kg, 3 mpk, first number of Plasma/brain pair, read-out: Cmax/(ng/mL) Plasma): 1250 ng/mL; Cmax ([1]; 3 mg/kg, 3 mpk, second number of Plasma/brain pair, read-out: Cmax/(ng/mL) brain): 1190 ng/mL; cell viability in REV-GFP assay (XPO1; 1 h, all concentrations tested): no decrease in cell viability; EC90 (XPO1; U2OS, concentration stated as EC90 in washout study, read-out: EC90 (REV-EGFP translocation)): 400 nM; pEC50 (XPO1; concentration stated as EC50 in washout study, read-out: EC50 (REV-EGFP translocation)): 6.92

Source: patent US11767313B2, “Compounds as nuclear transport modulators and uses thereof” (XWPHARMA LTD., priority 2018, dated 2023)
